Experimental data published in patent publication US6100073A, “Acid-stable and thermo-stable enzymes derived from sulfolobus species” (Genencor International, Inc., priority 1994, dated 2000).

Target: enzyme having α-1,4 hydrolytic activity derived from Sulfolobus acidocaldarius DSM 639 (purified, about 95 kDa; EC 3.2.1.1 / amylopullulanase) (Sulfolobus acidocaldarius, UniProt Q4J9M2)
Experiment: biochemical
Method: In a hermetically sealed tube, 25 μl of solution C was mixed with 25 μl of water and then added to 250 μl of a solution containing 0.1% (w/v) Lintner'starch (Baker), citrate/phosphate buffer (100 mM/200 mM) at various pH values (as described in detail below). The mixture was then incubated for 15 minutes at various temperatures (see below). Incubation was terminated by transferring the tube to an ice/water bath (0° C.).
The absorbance was measured at 620 nm (Pharmacia LKB Ultraspec Plus).
A blank assay was performed by replacing the 50 μl enzyme solution C with water.
The relative activity (relative units) was calculated from the standard curve by calculation of the value [(ODb -ODs)/ODb ]×100, and then linearly extrapolating the corresponding volume (μl) from the two closest points of the standard curve.
The relative (α-1,4 hydrolytic) activity (%) is defined as the extrapolated volume value (μl), deduced from the standard curve.
Respective samples of Solution C were obtained and prepared as described above in Example 4 to perform the standard assay.
The influence of various metal cations and of EDTA on the α-1,4 hydrolytic activity of the enzyme derived from Sulfolobus acidocaldarius DSM 639 was determined by running the standard assay described above in Example 4 on each of the tubes (samples) in the presence of the additional various metal cations at a final concentration of 2, 5, and 10 mM.

[1] = read-out: Relative activity (%)

Chain of enzyme having α-1,4 hydrolytic activity derived from Sulfolobus acidocaldarius DSM 639 (purified, about 95 kDa; EC 3.2.1.1 / amylopullulanase) (Q4J9M2 1-884): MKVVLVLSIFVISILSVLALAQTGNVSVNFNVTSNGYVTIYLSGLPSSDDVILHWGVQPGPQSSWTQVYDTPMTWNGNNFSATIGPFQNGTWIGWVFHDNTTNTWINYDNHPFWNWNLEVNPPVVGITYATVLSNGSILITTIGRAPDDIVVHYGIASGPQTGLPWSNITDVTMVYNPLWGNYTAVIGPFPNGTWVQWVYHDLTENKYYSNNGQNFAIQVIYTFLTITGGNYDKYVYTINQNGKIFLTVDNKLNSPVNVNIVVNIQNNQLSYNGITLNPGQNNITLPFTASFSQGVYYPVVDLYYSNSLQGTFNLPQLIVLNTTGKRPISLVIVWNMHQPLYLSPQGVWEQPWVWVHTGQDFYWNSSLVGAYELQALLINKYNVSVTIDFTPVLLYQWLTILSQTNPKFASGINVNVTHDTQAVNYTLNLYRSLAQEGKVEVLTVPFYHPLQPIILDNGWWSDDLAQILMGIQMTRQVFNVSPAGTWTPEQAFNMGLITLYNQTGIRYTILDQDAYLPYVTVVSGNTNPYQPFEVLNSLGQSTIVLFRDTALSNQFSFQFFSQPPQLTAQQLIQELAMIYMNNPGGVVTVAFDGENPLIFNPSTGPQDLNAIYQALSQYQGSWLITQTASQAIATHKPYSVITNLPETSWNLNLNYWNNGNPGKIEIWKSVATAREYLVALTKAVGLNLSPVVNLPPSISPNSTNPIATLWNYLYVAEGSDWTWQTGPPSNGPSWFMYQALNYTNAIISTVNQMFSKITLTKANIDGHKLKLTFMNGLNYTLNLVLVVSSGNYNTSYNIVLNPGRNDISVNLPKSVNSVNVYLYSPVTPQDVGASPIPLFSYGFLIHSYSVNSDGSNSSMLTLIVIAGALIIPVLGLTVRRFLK

Which “α-1,4 hydrolytic activity in the absence of calcium (with EDTA)” value (EDTA 2-10 mM, summary of Table 6) does the source give for `O=C(O)CN(CCN(CC(=O)O)CC(=O)O)CC(=O)O` [EDTA] here?
The value was “fully active”.

What about the activity at 2000 µM [1] of the same molecule?
Its activity at 2000 µM is 97%.

And the activity at 5000 µM [1]?
Its activity at 5000 µM is 101%.

And the activity at 10000 µM [1]?
Its activity at 10000 µM is 98%.
